Assay results as given in patent publication US20260124213A1, “STAPHYLOCOCCUS AUREUS PBP4 INHIBITORS AND METHOD OF USE” (UNIVERSITY OF ROCHESTER, priority 2022, published 2026).
In brackets after ≈: the same amount, converted by molar mass. Several values for one entry are separate records, joined by “and”; a condition that tells them apart may be missing. Identical values can stand only once. Like-named read-outs stand apart in the source and are kept apart here.

Assays:
[1] = tested on: MRSA strain AH-1263; assay: Broth microdilution antibiotic potentiation; type: cell-based, Staphylococcus aureus; details: AH-1263; for MIC: Staphylococcus aureus, MRSA
Experimental: (§1) Broth Microdilution Method for Antibiotic Potentiation with MRSA Strains. Bacteria were cultured for 6 hours in CAMHB and sub-cultured to 5×10^5 CFU/mL in CAMHB. Subcultures were aliquoted (4 mL) into culture tubes and then inoculated with compound from 10 mM or 100 mM stock in DMSO to the desired concentration. […]. Bacteria treated with antibiotic alone served as the control. Samples from the secondary culture tubes were then aliquoted (200 μL) into the first row of wells of a 96-well microtiter plate. Rows 2-11 were filled (100 μL) with the remaining 4 mL of bacterial subculture containing the adjuvant. Row 12 was filled (100 μL) with uninoculated media. From row 1, 100 μL was transferred to row two and mixed 5-8 times before being transferred to row 3. This procedure was used to serial dilute the rest of the rows through 10. The microtiter plate was then covered in Press 'n Seal and incubated at 37° C.

[2] = tested on: MRSA strain AH-2204; assay: Broth microdilution antibiotic potentiation; type: cell-based, Staphylococcus aureus; details: Staphylococcus aureus, MRSA, AH-2204
Experimental: as §1

[3] = tested on: MRSA strain ATCC BAA-1556; assay: Broth microdilution antibiotic potentiation; type: cell-based, Staphylococcus aureus; details: ATCC BAA-1556; for MIC: Staphylococcus aureus
Experimental: as §1

[4] = tested on: CRB; assay: MIC testing of antibiotics; type: cell-based, Staphylococcus aureus; details: for MIC: Staphylococcus aureus, read-out: Minimum inhibitory concentration, CRB
Experimental: (§2) Bacterial Strains and Chemicals. The bacterial strains used in these studies include: USA300, USA300Δpbp4, USA300Δpbp4 pPBP4, COL, COLn, COLnex, CRB, and CRBΔpbp4. S. aureus strain USA300 is a predominant cause of U.S. community-associated MRSA infections, whereas strain COL is a commonly studied hospital-associated MRSA strain. The S. aureus USA300 pbp4-null strain (USA300Δpbp4) and PBP4 complementation strain (USA300Δpbp4 pPBP4) have been previously described. […] All strains were grown in Mueller Hinton (MH) broth at 37° C., as indicated.
(§3) Prioritized compounds were tested for their ability to reverse PBP4 mediated antibiotic resistance in another S. aureus background using three isogenic strains that became available during the study (generous gift from Dr. S. Chatterjee; University of Maryland). These strains included: 1) COLnex, which is a methicillin susceptible strain, 2) CRB, a methicillin/ceftobiprole resistant strain of COLnex that overproduces PBP4, and 3) CRBΔpbp4, a methicillin susceptible strain of CRB lacking the pbp4 gene.

[5] = tested on: S. aureus strain USA300; assay: microbe, parasite or virus in culture; type: cell-based, Staphylococcus aureus
Experimental: as §2
(§4) Prior to identifying new PBP4 inhibitors, a screening paradigm to identify existing molecules that reverse the antibiotic resistance profile of wild type cells to that of a pbp4 mutant was developed. To define screening conditions three strains were employed: 1) a wild type USA300 MRSA strain, 2) an isogenic pbp4 deletion strain, and 3) a complemented strain harboring a plasmid wildtype pbp4 copy. The antibiotic susceptibility profile of each strain was measured to determine the magnitude with which PBP4 affects resistance to various antibiotics (Table 1).

[6] = tested on: CRBΔpbp4; assay: MIC testing of antibiotics; type: cell-based; details: Staphylococcus aureus, read-out: Minimum inhibitory concentration
Experimental: as §2, §3

[7] = tested on: COLnex; assay: MIC testing of antibiotics; type: cell-based; details: Staphylococcus aureus, read-out: Minimum inhibitory concentration
Experimental: as §2, §3

[8] = tested on: strain CRBΔpbp4; assay: microbe, parasite or virus in culture; type: cell-based, Staphylococcus aureus; details: Staphylococcus aureus, read-out: BPR (ceftobiprole) MIC, Alone
[9] = tested on: USA300Δpbp4; assay: MIC testing of antibiotics; type: cell-based, Staphylococcus aureus; details: for MIC: Staphylococcus aureus, read-out: Minimum inhibitory concentration
Experimental: as §2, §4

[10] = tested on: S. aureus strain CRB; assay: microbe, parasite or virus in culture; type: cell-based, Staphylococcus aureus; details: Staphylococcus aureus, read-out: BPR (ceftobiprole) MIC, Alone
Experimental: Fractional Inhibitory Concentration Index (FICI). Fractional inhibitory testing was performed in checkerboard format to determine whether putative PBP4 inhibitors potentiated the antimicrobial effects of β-lactams toward S. aureus strains USA300 and CRB, as previously described (Chojacnki, et al. Journal of Antimicrobial Chemotherapy, 2003, 52, 1). To do so, in triplicate 10^5 CFU of each strain (10 μL) was added to individual wells of a microtiter plate containing 90 μL MH media. […] Plates were incubated at 37° C. for 16-20 hour and the lowest concentration of each test agent that inhibited bacterial growth alone or in combination was determined by the naked eye. The fractional inhibitory concentration (FIC) index was calculated using the formula: FIC of A (MIC of drug A in combination/MIC of drug A alone)+FIC B ([…]/MIC of drug B alone). A synergistic interaction was defined as a FICI value of less than 0.5, an additive interaction was defined as a FICI value between 0.5 and 1.0, an indifferent interaction was defined as a FICI value between 1.0 and 4.0, and an antagonistic interaction was defined as a FICI value of more than 4.0.

[11] = tested on: USA300Δpbp4 pPBP4; assay: microbe, parasite or virus in culture; type: cell-based; details: Staphylococcus aureus, read-out: Minimum inhibitory concentration
[12] = read-out: Amoxicillin MIC, no compound (—)
[13] = Staphylococcus aureus, USA300, read-out: Minimum inhibitory concentration
[14] = read-out: Cefotaxime MIC, no compound (—)
[15] = read-out: Cephalothin MIC, no compound (—)
[16] = read-out: Imipenem MIC, no compound (—)
[17] = read-out: Piperacillin MIC, no compound (—)

Row | Compound | MIC [4] [µg/mL] | MIC [5, 13] [µg/mL] | MIC [6] [µg/mL] | MIC [7] [µg/mL] | MIC [9] [µg/mL] | MIC [11] [µg/mL] | also measured
1 | CC1(C)S[C@@H]2[C@H](NC(=O)[C@H](N)c3ccc(O)cc3)C(=O)N2[C@H]1C(=O)O [Amoxicillin, amoxicillin] |  |  |  |  |  |  | Amoxicillin MIC, no compound (—) [1]: 8 µg/mL; MIC [1, 12]: 4 µg/mL; MIC [2, 12]: 2 µg/mL; MIC [3, 12]: 8 µg/mL
2 | Nc1nc(/C(=N/O)C(=O)N[C@@H]2C(=O)N3C(C(=O)O)=C(/C=C4\CCN([C@@H]5CCNC5)C4=O)CS[C@H]23)ns1 [BPR, ceftobiprole] | 128 (≈ 239 µM) | 0.5 (≈ 0.935 µM) | 0.25 (≈ 0.468 µM) | 0.25 (≈ 0.468 µM) | 0.25 (≈ 0.468 µM) | 0.5 (≈ 0.935 µM) | Minimum inhibitory concentration ([4]; CRB): >128 µg/mL; MIC [8]: 0.25 µg/mL (≈ 0.468 µM); MIC [10]: 128 µg/mL
3 | O=C(O)c1cn(C2CC2)c2cc(N3CCNCC3)c(F)cc2c1=O [CIP, ciprofloxacin] | 0.5 (≈ 1.51 µM) |  | 0.25 (≈ 0.754 µM) | 0.25 (≈ 0.754 µM) | 1 (≈ 3.02 µM) |  | MIC ([5]; Staphylococcus aureus, USA300; read-out: Minimum inhibitory concentration): 4 µg/mL (≈ 12.1 µM); Minimum inhibitory concentration ([5]; USA300): 4 µg/mL (≈ 12.1 µM); Minimum inhibitory concentration ([9]; USA300Δpbp4): 1 µg/mL (≈ 3.02 µM)
4 | CO/N=C(\C(=O)N[C@@H]1C(=O)N2C(C(=O)O)=C(COC(C)=O)CS[C@H]12)c1csc(N)n1 [Cefotaxime, cefotaxime] |  |  |  |  |  |  | Cefotaxime MIC, no compound (—) [1]: 32 µg/mL; MIC [1, 14]: 16 µg/mL; Cefotaxime MIC, no compound (—) [3]: 32 µg/mL; MIC [3, 14]: 16 µg/mL
5 | CC(=O)OCC1=C(C(=O)O)N2C(=O)[C@@H](NC(=O)Cc3cccs3)[C@H]2SC1 [Cephalothin, cephalothin] |  |  |  |  |  |  | Cephalothin MIC, no compound (—) [1]: 32 µg/mL; MIC [1, 15]: 16 µg/mL; Cephalothin MIC, no compound (—) [3]: 16 µg/mL; MIC [3, 15]: 32 µg/mL
6 | C[C@@H](O)[C@H]1C(=O)N2C(C(=O)O)=C(SCCN=CN)C[C@H]12 [Imipenem, imipenem] |  |  |  |  |  |  | MIC [1, 16]: 16 µg/mL; MIC [2, 16]: 32 µg/mL; MIC [3, 16]: 32 µg/mL
7 | C[C@H]1COc2c(N3CCN(C)CC3)c(F)cc3c(=O)c(C(=O)O)cn1c23 [LEV, levofloxacin] | 0.5 (≈ 1.38 µM) | 1 (≈ 2.77 µM) | 0.25 (≈ 0.692 µM) | 0.25 (≈ 0.692 µM) | 0.5 (≈ 1.38 µM) | 1 (≈ 2.77 µM) | 
8 | C[C@@H](O)[C@H]1C(=O)N2C(C(=O)O)=C(S[C@@H]3CN[C@H](C(=O)N(C)C)C3)[C@H](C)[C@H]12 [MER, meropenem] | 64 (≈ 167 µM) | 4 (≈ 10.4 µM) | 1 (≈ 2.61 µM) | 1 (≈ 2.61 µM) | 2 (≈ 5.22 µM) | 4 (≈ 10.4 µM) | Minimum inhibitory concentration ([5]; USA300): 4 µg/mL (≈ 10.4 µM)
9 | CN(C)c1ccc(O)c2c1C[C@H]1C[C@H]3[C@H](N(C)C)C(O)=C(C(N)=O)C(=O)[C@@]3(O)C(O)=C1C2=O [MIN, minocycline] | 0.5 (≈ 1.09 µM) | 0.5 (≈ 1.09 µM) | 0.5 (≈ 1.09 µM) | 0.5 (≈ 1.09 µM) | 0.5 (≈ 1.09 µM) | 0.5 (≈ 1.09 µM) | 
10 | C/C(=C\C(=O)OCCCCCCCCC(=O)O)C[C@@H]1OC[C@H](C[C@@H]2O[C@H]2[C@@H](C)[C@H](C)O)[C@@H](O)[C@H]1O [MUP, mupirocin] | 0.03 (≈ 0.0599 µM) | 0.125 (≈ 0.25 µM) | 0.03 (≈ 0.0599 µM) | 0.03 (≈ 0.0599 µM) | 0.125 (≈ 0.25 µM) | 0.125 (≈ 0.25 µM) | 
11 | CCOc1ccc2ccccc2c1C(=O)N[C@@H]1C(=O)N2[C@@H]1SC(C)(C)[C@@H]2C(=O)O [NAF, nafcillin] | > 128 | 8 (≈ 19.3 µM) | 0.25 (≈ 0.603 µM) | 0.25 (≈ 0.603 µM) | 4 (≈ 9.65 µM) | 8 (≈ 19.3 µM) | Minimum inhibitory concentration ([5]; USA300): 8 µg/mL (≈ 19.3 µM)
12 | CC1(C)S[C@@H]2[C@H](NC(=O)Cc3ccccc3)C(=O)N2[C@H]1C(=O)O [Penicillin G, penicillin G] |  |  |  |  |  |  | Penicillin G MIC, no compound (—) [1]: 16 µg/mL and 8 µg/mL
13 | CCN1CCN(C(=O)N[C@@H](C(=O)N[C@@H]2C(=O)N3[C@@H]2SC(C)(C)[C@@H]3C(=O)O)c2ccccc2)C(=O)C1=O [Piperacillin, piperacillin] |  |  |  |  |  |  | MIC [1, 17]: 16 µg/mL; MIC [2, 17]: 4 µg/mL; MIC [3, 17]: 16 µg/mL
14 | NC[C@H]1O[C@H](O[C@H]2[C@H](O)[C@@H](O[C@H]3O[C@H](CO)[C@@H](O)[C@H](N)[C@H]3O)[C@H](N)C[C@@H]2N)[C@H](N)C[C@@H]1O [TOB, tobramycin] | 0.06 (≈ 0.128 µM) | 1 (≈ 2.14 µM) | 0.06 (≈ 0.128 µM) | 0.06 (≈ 0.128 µM) | 1 (≈ 2.14 µM) | 1 (≈ 2.14 µM) | 
15 | colistin |  |  |  |  |  |  | Minimum inhibitory concentration ([5]; USA300): 128 µg/mL
